Measured values taken from the NIST ThermoML archive (doi:10.1021/je900137r).

Test: molar heat capacity at saturation pressure
Conditions: Liquid, Vacuum adiabatic calorimetry

CCC [propane]
Conditions | molar heat capacity [J/K/mol]
88.92 K | 84.87
91.12 K | 84.92
92.73 K | 84.92
94.89 K | 85.02
96.47 K | 84.96
98.58 K | 85.12
100.13 K | 85.19
102.21 K | 85.32
103.73 K | 85.36
105.78 K | 85.44
107.27 K | 85.47
109.28 K | 85.76
110.76 K | 85.79
112.74 K | 85.84
114.19 K | 85.97
116.15 K | 86.05
117.58 K | 86.14
119.51 K | 86.16
120.93 K | 86.45
122.83 K | 86.51
124.23 K | 86.53
126.12 K | 86.66
127.5 K | 86.9
129.36 K | 86.88
130.73 K | 87.09
132.57 K | 87.07
133.93 K | 87.31
135.75 K | 87.22
137.1 K | 87.67
138.9 K | 87.5
140.23 K | 87.61
142.01 K | 87.94
143.34 K | 87.91
145.1 K | 88.06
146.41 K | 88.35
148.16 K | 88.33
149.46 K | 88.44
151.2 K | 88.72
152.48 K | 88.71
154.21 K | 88.83
155.47 K | 89
157.2 K | 89.06
158.45 K | 89.26
160.15 K | 89.66
161.4 K | 89.43
163.09 K | 90.05
164.34 K | 89.53
166 K | 90.04
167.25 K | 90.06
168.9 K | 90.24
170.14 K | 90.37
171.79 K | 90.38
173.01 K | 90.28
174.65 K | 90.89
175.86 K | 90.91
177.49 K | 91.25
178.7 K | 91.17
180.31 K | 91.67
181.51 K | 91.3
183.12 K | 91.84
184.31 K | 91.75
185.91 K | 92.02
187.09 K | 92.23
188.68 K | 92.09
189.85 K | 92.57
191.44 K | 92.72
192.61 K | 92.88
194.18 K | 93.05
195.34 K | 93.67
196.91 K | 93.56
198.06 K | 93.95
199.62 K | 94.02
200.76 K | 94.12
202.32 K | 94.07
203.45 K | 94.68
205.01 K | 94.36
206.14 K | 94.22
207.69 K | 94.92
208.8 K | 94.54
210.35 K | 95.41
211.45 K | 95.58
213 K | 96.05
214.1 K | 96.24
215.65 K | 96.38
216.73 K | 96.69
218.28 K | 97.14
219.35 K | 97.4
220.9 K | 96.94
221.97 K | 97.43
223.51 K | 97.28
224.57 K | 97.58
226.12 K | 98.17
227.16 K | 98.39
228.72 K | 98.66
229.75 K | 98.99
231.31 K | 99.11
232.33 K | 99.49
233.9 K | 99.63
234.9 K | 99.41
236.47 K | 99.64
237.46 K | 100.12
239.04 K | 100.21
240.02 K | 100.5
241.61 K | 100.94
242.57 K | 101.2
244.17 K | 101.8
245.12 K | 101.78
246.72 K | 102.66
247.66 K | 102.27
249.28 K | 103.18
250.2 K | 102.98
251.83 K | 103.62
252.74 K | 103.41
254.37 K | 104.07
255.27 K | 103.99
256.92 K | 104.47
257.8 K | 104.55
259.46 K | 104.97
260.32 K | 105.39
262 K | 106
262.85 K | 106.36
264.54 K | 106.11
265.38 K | 106.45
267.08 K | 107.17
267.9 K | 107.71
267.92 K | 107.58
269.62 K | 107.64
270.42 K | 108.4
270.71 K | 108.16
271.49 K | 109.25
272.15 K | 109.03
272.92 K | 109.16
273.04 K | 108.7
273.85 K | 109.09
274.7 K | 109.64
275.38 K | 109.29
275.42 K | 110.08
276.2 K | 109.72
277.24 K | 110.22
277.72 K | 110.44
277.92 K | 110.44
278.57 K | 110.68
279.78 K | 110.83
280.07 K | 110.92
280.41 K | 111.44
280.93 K | 111.66
282.32 K | 111.64
282.41 K | 112.19
282.91 K | 112.06
283.3 K | 112.78
284.77 K | 113.05
284.86 K | 112.93
285.41 K | 112.26
285.68 K | 112.86
287.13 K | 113.09
287.41 K | 113.95
287.91 K | 113.12
288.05 K | 113.08
289.5 K | 114.17
289.95 K | 114.64
290.41 K | 114.75
290.43 K | 114.57
291.86 K | 114.95
292.5 K | 115.46
292.81 K | 115.77
292.93 K | 115.51
294.24 K | 115.29
295.04 K | 116.36
295.21 K | 116
295.44 K | 116.88
296.61 K | 116.56
297.59 K | 117.55
297.6 K | 116.98
297.96 K | 117.85
298.99 K | 117.8
300 K | 118.27
300.14 K | 118.94
300.48 K | 117.96
301.38 K | 118.85
302.4 K | 119.55
302.69 K | 119.67
303.01 K | 118.38
303.77 K | 119.3
304.81 K | 120.27
305.25 K | 120.48
305.54 K | 119.64
306.16 K | 120.81
307.23 K | 121.32
307.82 K | 121.03
308.07 K | 121.52
308.57 K | 122.04
309.65 K | 121.95
310.38 K | 122.63
310.62 K | 122.47
310.98 K | 123.64
312.07 K | 123.46
312.95 K | 123.93
313.15 K | 124.63
313.4 K | 124.69
314.51 K | 124.14
315.53 K | 124.76
315.71 K | 125.89
315.83 K | 124.99
318.12 K | 125.37
318.27 K | 126.41
323.24 K | 129.01
323.35 K | 129.31
325.84 K | 130.18
325.93 K | 131.3
328.44 K | 132.33
328.51 K | 133.4
331.06 K | 135.04
331.1 K | 135.99
333.69 K | 136.44
333.7 K | 137.68
336.31 K | 139.1
336.32 K | 139.03
338.93 K | 140.95
338.96 K | 142.73
341.56 K | 144.64
341.61 K | 145.97
344.21 K | 149.14
344.27 K | 148.36
